Data reported in US20070232647A1, “Use of Ppar Agonists to Treat Ruminants” (priority 2004, published 2007).

What was measured:
Holstein cows = assay: Average daily milk yield over sixty days after calving; format: in vivo; details: approximately 0.5 mg/kg SC on day of calving and day five post-calving, increased from 41.8 (placebo), p=0.052, FIG. 6
Description: One hundred twenty four pregnant, non-lactating Holstein cows were allocated to two treatment groups (placebo and COMPOUND (at approximately 0.5 mg/kg). In this Example COMPOUND is (3S)-3-[3-(1-Carboxy-1-methyl-ethoxy)-phenyl]-piperidine-1-carboxylic acid, 4-trifluoromethyl-benzyl ester. Animals were allowed to calve, treated by subcutaneous injection on the day of calving and on day five post-calving. Disease events and daily milk production were recorded for the following sixty days. The average daily milk yield in the treated cows was increased from 41.8 to 43.2 kg/day (p=0.052). Results are shown in FIG. 6.

mid-lactation cows = assay: Serum glucose levels, Example 1: PK/PD of two PPAR alpha agonists given IV and SC; format: in vivo; details: 0.5 mg/kg IV or SC, regardless of route of administration; blood samples up to 72 hours; FIG. 1
Description: Both compounds were administered by IV and SC routes, as outlined in the table below.
All animals were bled one day prior, and 15 minutes prior, to compound administration. Blood samples were collected from animals treated via IV at 5 and 10 minutes post compound administration. Blood samples were collected from all animals at 0.5, 1, 2, 4, 6, 24, 30, 48, 54, and 72 hours post compound administration. Samples were analyzed for glucose concentrations using a Dade Behring Dimension RXL serum chemistry analyzer. […] Other commercially available, standard apparatus for testing glucose levels can also be used.

In the case of `CC(C)(Oc1cccc([C@@H]2CCCN(C(=O)OCc3ccc(C(F)(F)F)cc3)C2)c1)C(=O)O` [Compound A, (3S)-3-[3-(1-Carboxy-1-methyl-ethoxy)-phenyl]-piperidine-1-carboxylic acid 4-trifluoromethyl-benzyl ester], the “average daily milk yield” value (Holstein cows) is reported as 43.2 kg/day.
With `Cc1ccc(-c2ccc(NS(=O)(=O)c3ccc(C)c(C(=O)O)c3)cc2)cc1` [Compound X, 2-Methyl-5-(4′-methyl-biphenyl-4-ylsulfamoyl)-benzoic acid] the “glucose concentration relative to baseline values” (mid-lactation cows) was “increase in glucose”.
